# In US9745318B2, “Fluorescent red emitting functionalizable calcium indicators” (PARIS SCIENCES ET LETTRES—QUARTIER LATIN, priority 2013, dated 2017):
# Values joined by “and” are separate entries in the source; they are usually repeats but may differ in a detail not shown here. Identical values can stand only once. Like-named read-outs stand apart in the source and are kept apart here.
# Legend:
# [1] = Two-photon excitation, fluorescence intensity vs. excitation power; format: physicochemical
# Experimental: Experiments of two-photon excitation of Ia-1 were conducted. Results are represented on FIG. 8. The power function fit to the data gives a power of 1.92±0.10—within one SD of 2.0, as expected for two-photon excitation evidencing that the measured fluorescence was indeed two-photon excited.
# [2] = Determination of fluorescence quantum yield; format: physicochemical; conditions: rhodamine 101 as reference standard
# Experimental: The quantum yields φ of Ia-1 were calculated from the slope of the integrated spectral emission (545 to 700 nm) of Ia-1 in the presence (2 mM) or absence (0 mM, 10 mM EGTA) of Ca^2+ vs. absorbance at 535 nm using rhodamine 101 (φ=1.0 in absolute ethanol) as a reference standard. A solvent correction was applied for the comparison of the fluorescence quantum yields of Ia-1 and rhodamine 101. The quantum yields φ were calculated using the following equation where φ is the quantum yield, s is the value of the observed slope and η is the refractive index of the solvent used.
# [formula] • The calculations gave: φCalcium free=0.0089 • φCa2+=0.4541 II.4. Two-Photon Excitation of Compound Ia-1
# [3] = Fluorimetric titration against Ca2+ (cuvette calibration, Hill fit); format: binding; conditions: for Kd: 100 mM KCl, 30 mM MOPS, pH 7.2, Hill fit
# Experimental: All the solvents were of analytical grade. Chemicals were purchased from commercial sources. ^1H-NMR and ^13C-NMR were measured on a Bruker avance 111-300 MHz spectrometer with chemical shifts reported in ppm (TMS as internal standard). Mass spectra were measured on a Focus GC/DSQ II spectrometer (ThermoScientific) for IC and an API 3000 spectrometer (Applied Biosystems, PE Sciex) for ES. All pH measurements were made with a Mettler Toledo pH-Meter. Fluorescence spectra were recorded on a JASCO FP-8300 spectrofluorometer. Absorption spectra were determined on a VARIAN CARY 300 Bio UV-Visible spectrophotometer. All measurements were done at a set temperature of 25° C. The purity of the dyes were checked by RP-HPLC C-18, eluant: ACN 0.1% TFA/Water 0.1% TFA, method: 20/80 to 100/0 within 20 min then 100/0 for 10 min. detection at λAbs=254 nm. The apparent dissociation constant for calcium (Kd Ca^2+) was measured with a calcium calibration buffer kit from Invitrogen.
# A fluorimetric titration of Ia-1 (5 μM) against Ca^2+ in a buffer containing (in mM) 100 KCl and 30 MOPS (pH 7.2) was performed.
# A fluorimetric titration of Ia-1-Dextran-6000 conjugate against Ca^2+ in a buffer containing (in mM) 100 KCl and 30 MOPS (pH 7.2) was also conducted.
# A fluorimetric titration of Ic-1 and Ic-2 against Ca^2+ in a buffer containing (in mM) 100 KCl and 30 MOPS (pH 7.2) was also conducted. […] The normalised fluorimetric titrations against Ca^2+ of Ia-1, Ic-1 and Ic-2 are represented in FIG. 13.
# [4] = test system: Purkinje cells; assay: High-speed random access two-photon microscopy with climbing fiber stimulation in cerebellar slices; format: cell-based, mice; conditions: exponential fit, n=59 spines from 7 cells, 300 μM in pipette
# Experimental: For high speed imaging experiments, acute 260 μm thick slices were obtained from the cerebellar vermis of P60 mice and superfused with extracellular saline medium.
# Climbing fiber stimulation-evoked transient [Ca^2+] changes in Purkinje cell spines were recorded at high acquisition rate (>2 kHz) by two-photon random-access microscopy, a technique is based on the use of acousto-optic deflectors (AODs), which enable selective scanning of defined points. Purkinje cells were recorded in current-clamp mode, using 2-3MΩ patch pipettes containing 300 μM Ia-1. Recordings were obtained by use of a Multiclamp 700B (Molecular Devices). Following the dialysis of Ia-1, Purkinje cells in slices were imaged under a 25× Leica water immersion objective (HCX IRAPO L 25×/0.95). […] A multifunction card (NI-PCI-MIO 16 E-4) was used to pass all the triggers necessary to synchronize the imaging and the electrophysiology and to control the piezo-electric device that moves the objective in Z. Fluorescence photons were detected by cooled AsGaP photomultipliers (H7421-40, Hamamatsu) discriminated and counted on a fast digital card.
# During stimulation of the climbing fiber, fluorescence traces were acquired from multiple spines (range: 4 to 14) at rates over 1 kHz (range 2.2 to 4.8 kHz) (FIGS. 11e and 11f).
# [5] = in absolute ethanol; cited from earlier work
# [6] = read-out: apparent dissociation constant for Ca2+
compound,measurement,setting,value
[N-]=[N+]=NCCCCCCOc1cc(OCCOc2ccccc2N(CC(=O)O)CC(=O)O)c(N(CC(=O)O)CC(=O)O)cc1C1=c2cc3c4c(c2Oc2c1cc1c5c2CCCN5CCC1)CCC[N+]=4CCC3 [Ia-1],power of the power function fit (fluorescence intensity vs. excitation power),[1],1.92±0.10
same,"quantum yield φ, calcium free","[2]; 0 mM Ca2+, 10 mM EGTA",0.0089
same,"quantum yield φ, Ca2+ bound (maximum quantum yield)",[2]; 2 mM Ca2+,0.4541 and 0.45
same,Kd,[3]; read-out: apparent dissociation constant (KD) for Ca2+,258 nM
same,increase of fluorescence on binding [Ca2+],[3]; cuvette calibration experiments,50 fold
same,rise time τ of Ca2+ transients,[4],1.30 ± 0.26 ms
[N-]=[N+]=NCCCCCCOc1cc(OCCOc2ccc(Cl)cc2N(CC(=O)O)CC(=O)O)c(N(CC(=O)O)CC(=O)O)cc1C1=c2cc3c4c(c2Oc2c1cc1c5c2CCCN5CCC1)CCC[N+]=4CCC3 [Ic-1],Kd,[3]; [6],1700 nM
[N-]=[N+]=NCCCCCCOc1cc(OCCOc2cc(F)ccc2N(CC(=O)O)CC(=O)O)c(N(CC(=O)O)CC(=O)O)cc1C1=c2cc3c4c(c2Oc2c1cc1c5c2CCCN5CCC1)CCC[N+]=4CCC3 [Ic-2],Kd,[3]; [6],320 nM
O=C(O)c1ccccc1C1=c2cc3c4c(c2Oc2c1cc1c5c2CCCN5CCC1)CCC[N+]=4CCC3.[Cl-] [rhodamine 101],quantum yield φ of reference standard,[5],1.0
